Where a name gives a salt, the structure may show the parent alone.
Legend:
[1] = Metabolic stability in mouse liver microsomes; conditions: male, Balb/c, mouse, microsomes, pH 7.4
Procedure: Microsomal incubations were carried out in 96-well plates in 5 aliquots of […] each (one for each time point). […] Control incubations were performed replacing the NADPH-cofactor system with PBS. […] Incubations were performed in duplicates. Five time points over 40 minutes had been analyzed. The reactions were stopped by adding 12 volumes of 90% acetonitrile-water to incubation aliquots, followed by protein sedimentation by centrifuging at 5500 rpm for 3 minutes. […]. Supernatants were analyzed using the HPLC system coupled with tandem mass spectrometer.
The elimination constant (kel), half-life (t½) and intrinsic clearance (Clint) were determined in plot of In(AUC) versus time, using linear regression analysis (In order to indicate the quality of the linear regression analysis, the R (correlation coefficient) values are provided. In some cases, the last time point is excluded from the calculations to ensure acceptable logarithmic linearity of decay): […]

[2] = system: hematopoietic stem cell formation; assay: Effect on zebrafish hematopoietic stem cell formation (in situ runx-1+c-myb); assay type: in vivo; conditions: 36 hpf
Procedure: Zebrafish embryos were exposed 20-30 min after fertilization to differing concentrations of the compounds C10 and D1 (5 μM; 15 μM; 25 μM) or to medium containing the corresponding solvent (DMSO) concentration. Therefore, 3-5 embryos were sorted into each of three wells of a 96 well plate containing 200 μl of medium. For phenotype analysis, triplicates were imaged after 6-7 h post fertilization (hpf) at approximately shield stage, after 24 hpf and after 48 hpf. Dead +unfertilized embryos were removed. For imaging at 24 hpf +48 hpf; embryos were anesthetized using MESAB. (A) Diagramm showing the percentage of embryos at each time point either developing normal (blue color) or with the indicated phenotype. (B) representative images of embryos treated with the indicated compounds, or controls at the respective time points. (C) To additionally elucidate the influence on hematopoietic stem cell formation, approx. half of the embryos were sampled at 36 hpf and an in situ staining for runx-1+c-myb was performed. Shown are representative images of hematopoietic stem cell formation with the treatment indicated.
Embryos were exposed 20-30 min after fertilization to differing concentrations of the compounds C10 and D1 (5 μM; 15 μM; 25 μM) or to medium containing the corresponding solvent (DMSO) concentration. […]

[3] = molecular target: T1, DENV capsid protein (Dengue virus type 2, UniProt P29990); assay: Crosslinking of recombinant DENV capsid protein (Western blot); assay type: biochemical
T1 construct: recombinant DENV capsid protein; made in house; host or cells: E. coli
Excerpt: (§1) DSS was included as a positive control.

[4] = system: VP1 polyomavirus, LP1 HPV16, p24 HIV, BSA, GFP; assay: Specificity in the cross-linking assay: other capsid and non-related proteins; assay type: biochemical
Procedure: as §1
To study the specificity of C10, capsid proteins of other viruses (VP1 polyomavirus, LP1 HPV16, and p24 HIV) as well as non-related proteins (BSA, GFP), were incubated in the so-called cross-linking assay, with DSS or C10.

[5] = in vitro; conditions: for % Remain. Mean: mouse plasma, 1 μM, 37° C.
Procedure: Plasma stability is defined as the percentage of parent compound remaining in plasma over the time.
Incubations were carried out in 5 aliquots of 70 μL each (one for each time point), in duplicates. Test compounds (1 μM, final DMSO concentration 1%) were incubated at 37° C. with shaking at 100 rpm. Five time points over 120 minutes have been analyzed. The reactions were stopped by adding 420 μL of acetonitrile-water mixture (90:10) with subsequent plasma proteins sedimentation by centrifuging at 5500 rpm for 5 minutes. Supernatants were analyzed by the HPLC system coupled with tandem mass spectrometer. The percentage of the test compounds remaining after incubation in plasma and their half-lives (T1/2) were calculated.

[6] = system: HCV; assay: IC50 against HCV, RLuc reporter virus, re-infection of naïve Huh7.5 cells; assay type: cell-based, Hepatitis C virus; conditions: serial dilutions 20 to 0.0024 μM
Procedure: Concerning the SAR studies, 45 C10 derivatives were designed and synthesized, which were tested regarding both their antiviral activity against HCV and DENV, as well as their cytotoxicity. For the activity test, a construct including the viral genome and the reporter gene RLuc was used.
Huh7.5 cells were electroporated with the corresponding RNA, seeded in 96-well plate and treated during 24/48 h with C10 and the different compounds. The supernatant of virus-producing cells was used to re-infect naïve Huh7.5 cells, which were then lysed and their RLuc signal measured.

[7] = system: Huh7.5 cells; assay: SAR test of C10 derivatives: cytotoxicity (CellTiterGlo); conditions: 48 h

CC(C)NCC(O)COc1cccc2ccccc12 (racemic) [Propranolol, (+,−) Propranolol hydrochloride, reference compound]
half-life at 2 mM [1]: 53.9 min

CCN1/C(=C/C=C/c2sc3cc(N)ccc3[n+]2CC)Sc2cc(N)ccc21.[I-] [D1, 6-amino-2-[(1E)-3-[(2Z)-6-amino-3-ethyl-2,3-dihydro-1,3-benzothiazol-2-ylidene]prop-1-en-1-yl]-3-ethyl-1,3-benzothiazol-3-ium iodide]
hematopoietic stem cell formation [2]: no difference to the WT embryos

O=C(CCCCCCC(=O)ON1C(=O)CCC1=O)ON1C(=O)CCC1=O [DSS, disuccinimidyl suberate, reference compound]
effect on oligomerization state of DENV capsid protein [3]: stabilizes mainly the dimer
crosslinking effect on other capsid and non-related proteins [4]: clear effect of monomer consumption and dimer formation

CC(C)[N+](C)(CCOC(=O)C1c2ccccc2Oc2ccccc21)C(C)C [Propantheline, Propantheline bromide, reference compound]
% Remain. Mean ([5]; 0 min): 100%
% Remain. Mean ([5]; 20 min): 66%
% Remain. Mean ([5]; 40 min): 29%
% Remain. Mean ([5]; 60 min): 13%
% Remain. Mean ([5]; 120 min): 2%
half-life at 1 μM ([5]; mouse, plasma): 20 min

CC(=O)Nc1ccc2c(c1)S/C(=C\C=C\c1sc3cc(NC(C)=O)ccc3[n+]1C)N2C [compound 45, 6-acetamido-2-((1E,3E)-3-(6-acetamido-3-methylbenzo[d]thiazol-2(3H)-ylidene)prop-1-en-1-yl)-3-methylbenzo[d]thiazol-3-ium iodide]
potency relative to C10 (IC50 against HCV) [6]: 2.5 times
cytotoxicity [7]: not cytotoxic at the concentrations in which they are antiviral

CCN1/C(=C/C(C)=C/c2sc3cc(NC(C)=O)ccc3[n+]2CC)Sc2cc(NC(C)=O)ccc21 [compound 46, 6-acetamido-2-((1E,3E)-3-(6-acetamido-3-ethylbenzo[d]thiazol-2(3H)-ylidene)-2-methylprop-1-en-1-yl)-3-ethylbenzo[d]thiazol-3-ium iodide]
potency relative to C10 (IC50 against HCV) [6]: 1.5 times
cytotoxicity [7]: not cytotoxic at the concentrations in which they are antiviral
